Legend:
[1] = tested on: Echinochloa oryzoides (Ard.) Fritsch.; assay: Preemergence weed control under flooded paddy conditions, ECHORC (Watergrass (Calif.)); format: in vivo; conditions: flooded paddy, rated three to four weeks after treatment; note: meaning of each grade not given here
[2] = tested on: Cyperus iria; assay: Preemergence weed control under flooded paddy conditions, CYPIR (Rice Flatsedge); format: in vivo; conditions: flooded paddy, rated three to four weeks after treatment; note: meaning of each grade not given here
[3] = tested on: Cyperus serotinus, Rottb.; assay: Preemergence weed control under flooded paddy conditions, CYPSE (Flatsedge); format: in vivo; conditions: rated three to four weeks after treatment; note: meaning of each grade not given here
[4] = tested on: Monochoria vaginalis, Presl.; assay: Preemergence weed control under flooded paddy conditions, MOOVA (Monochoria); format: in vivo; conditions: flooded paddy, rated three to four weeks after treatment; note: meaning of each grade not given here
[5] = tested on: Sagittaria pygmaea, L.; assay: Preemergence weed control under flooded paddy conditions, SAGPY (Arrowhead (Pygmaea)); format: in vivo; conditions: flooded paddy, rated three to four weeks after treatment; note: meaning of each grade not given here
[6] = tested on: Echinochloa oryzoides (Ard.) Fritsch.; assay: Postemergence weed control under flooded paddy conditions, ECHORC (Watergrass (Calif.)); format: in vivo; conditions: rated three to four weeks after treatment
[7] = tested on: Cyperus iria; assay: Postemergence weed control under flooded paddy conditions, CYPIR (Rice Flatsedge); format: in vivo; conditions: rated three to four weeks after treatment
[8] = tested on: Cyperus serotinus, Rottb.; assay: Postemergence weed control under flooded paddy conditions, CYPSE (Flatsedge); format: in vivo; conditions: rated three to four weeks after treatment
[9] = tested on: Monochoria vaginalis, Presl.; assay: Postemergence weed control under flooded paddy conditions, MOOVA (Monochoria); format: in vivo; conditions: rated three to four weeks after treatment
[10] = tested on: Sagittaria pygmaea, L.; assay: Postemergence weed control under flooded paddy conditions, SAGPY (Arrowhead (Pygmaea)); format: in vivo; conditions: rated three to four weeks after treatment
[11] = tested on: Oryza sativa, (L.) Tebonnet; assay: Rice tolerance to post-transplant applications under flooded paddy conditions (Example 187), ORYSAT (Rice, Tebonnet); conditions: rated three to four weeks after treatment; note: meaning of each grade not given here
[12] = tested on: Oryza sativa, (L.) Tebonnet; assay: Rice tolerance to post-transplant applications under flooded paddy conditions (Example 188), ORYSAT (Rice, Tebonnet); conditions: rated three to four weeks after treatment
[13] = Rate 0.0320 kg/ha, preemergence weeds
[14] = Rate 0.0620 kg/ha, preemergence weeds
[15] = Rate 0.1250 kg/ha, preemergence weeds
[16] = Rate 0.2500 kg/ha, preemergence weeds
[17] = Rate 0.0320 kg/ha, preemergence
[18] = Rate 0.0620 kg/ha, preemergence
[19] = Rate 0.1250 kg/ha, preemergence
[20] = Rate 0.2500 kg/ha, preemergence

## CCOc1cccc(-c2nsc3ccc(-n4c(=O)cc(C(F)(F)F)n(C)c4=O)cc23)c1 [Example 327, 2,4(1H,3H)-Pyrimidinedione, 3-[3-(m-ethoxyphenyl)-1,2-benzisothiazol-5-yl]-1-methyl-6-(trifluoromethyl)-]
[1]; [13]
  herbicidal effect rating, ECHORC: 9.0
[1]; [14]
  herbicidal effect rating, ECHORC: 9.0
[1]; [15]
  herbicidal effect rating, ECHORC: 9.0
[1]; [16]
  herbicidal effect rating, ECHORC: 9.0
[2]; [13]
  herbicidal effect rating, CYPIR: 9.0
[2]; [14]
  herbicidal effect rating, CYPIR: 9.0
[2]; [15]
  herbicidal effect rating, CYPIR: 9.0
[2]; [16]
  herbicidal effect rating, CYPIR: 9.0
[3]; [13]
  herbicidal effect rating, CYPSE: 1.0
[3]; [14]
  herbicidal effect rating, CYPSE: 5.5
[3]; [15]
  herbicidal effect rating, CYPSE: 5.5
[3]; [16]
  herbicidal effect rating, CYPSE: 9.0
[4]; [13]
  herbicidal effect rating, MOOVA: 9.0
[4]; [14]
  herbicidal effect rating, MOOVA: 9.0
[4]; [15]
  herbicidal effect rating, MOOVA: 9.0
[4]; [16]
  herbicidal effect rating, MOOVA: 9.0
[5]; [13]
  herbicidal effect rating, SAGPY: 3.0
[5]; [14]
  herbicidal effect rating, SAGPY: 5.5
[5]; [15]
  herbicidal effect rating, SAGPY: 5.5
[5]; [16]
  herbicidal effect rating, SAGPY: 7.5
[6]; Rate 0.0320 kg/ha
  herbicidal effect rating, ECHORC: 9.0
[6]; Rate 0.0620 kg/ha
  herbicidal effect rating, ECHORC: 7.0
[6]; Rate 0.1250 kg/ha
  herbicidal effect rating, ECHORC: 9.0
[6]; Rate 0.2500 kg/ha
  herbicidal effect rating, ECHORC: 9.0
[7]; Rate 0.0320 kg/ha
  herbicidal effect rating, CYPIR: 9.0
[7]; Rate 0.0620 kg/ha
  herbicidal effect rating, CYPIR: 9.0
[7]; Rate 0.1250 kg/ha
  herbicidal effect rating, CYPIR: 9.0
[7]; Rate 0.2500 kg/ha
  herbicidal effect rating, CYPIR: 9.0
[8]; Rate 0.0320 kg/ha
  herbicidal effect rating, CYPSE: 0.0
[8]; Rate 0.0620 kg/ha
  herbicidal effect rating, CYPSE: 0.0
[8]; Rate 0.1250 kg/ha
  herbicidal effect rating, CYPSE: 0.0
[8]; Rate 0.2500 kg/ha
  herbicidal effect rating, CYPSE: 2.0
[9]; Rate 0.0320 kg/ha
  herbicidal effect rating, MOOVA: 9.0
[9]; Rate 0.0620 kg/ha
  herbicidal effect rating, MOOVA: 9.0
[9]; Rate 0.1250 kg/ha
  herbicidal effect rating, MOOVA: 9.0
[9]; Rate 0.2500 kg/ha
  herbicidal effect rating, MOOVA: 9.0
[10]; Rate 0.0320 kg/ha
  herbicidal effect rating, SAGPY: 0.0
[10]; Rate 0.0620 kg/ha
  herbicidal effect rating, SAGPY: 0.0
[10]; Rate 0.1250 kg/ha
  herbicidal effect rating, SAGPY: 4.0
[10]; Rate 0.2500 kg/ha
  herbicidal effect rating, SAGPY: 4.0
[11]; Rate 0.0320 kg/ha
  herbicidal effect rating ORYSAT: 3.0
[11]; Rate 0.0620 kg/ha
  herbicidal effect rating ORYSAT: 2.5
[11]; Rate 0.1250 kg/ha
  herbicidal effect rating ORYSAT: 3.5
[11]; Rate 0.2500 kg/ha
  herbicidal effect rating ORYSAT: 4.0
[12]; Rate 0.0320 kg/ha
  herbicidal effect rating, ORYSAT (rice tolerance): 2.0
[12]; Rate 0.0620 kg/ha
  herbicidal effect rating, ORYSAT (rice tolerance): 3.0
[12]; Rate 0.1250 kg/ha
  herbicidal effect rating, ORYSAT (rice tolerance): 5.0
[12]; Rate 0.2500 kg/ha
  herbicidal effect rating, ORYSAT (rice tolerance): 4.0

## CON(C)C(=O)COc1ccccc1-c1nsc2ccc(-n3c(=O)cc(C(F)(F)F)n(C)c3=O)cc12 [Example 354, Acetamide, 2-{o-{5-[3,6-dihydro-3-methyl-2,6-dioxo-4-(trifluoromethyl)-1(2H)-pyrimidinyl]-1,2-benzisothiazol-3-yl}phenoxy}-N-methoxy-N-methyl-]
[1]; [17]
  herbicidal effect rating, ECHORC: 9.0
[1]; [18]
  herbicidal effect rating, ECHORC: 9.0
[1]; [19]
  herbicidal effect rating, ECHORC: 9.0
[1]; [20]
  herbicidal effect rating, ECHORC: 9.0
[2]; [17]
  herbicidal effect rating, CYPIR: 8.3
[2]; [18]
  herbicidal effect rating, CYPIR: 9.0
[2]; [19]
  herbicidal effect rating, CYPIR: 9.0
[2]; [20]
  herbicidal effect rating, CYPIR: 9.0
[3]; [17]
  herbicidal effect rating, CYPSE: 8.0
[3]; [18]
  herbicidal effect rating, CYPSE: 9.0
[3]; [19]
  herbicidal effect rating, CYPSE: 9.0
[3]; [20]
  herbicidal effect rating, CYPSE: 9.0
[4]; [17]
  herbicidal effect rating, MOOVA: 9.0
[4]; [18]
  herbicidal effect rating, MOOVA: 9.0
[4]; [19]
  herbicidal effect rating, MOOVA: 9.0
[4]; [20]
  herbicidal effect rating, MOOVA: 9.0
[5]; [17]
  herbicidal effect rating, SAGPY: 6.3
[5]; [18]
  herbicidal effect rating, SAGPY: 9.0
[5]; [19]
  herbicidal effect rating, SAGPY: 9.0
[5]; [20]
  herbicidal effect rating, SAGPY: 9.0
[6]; Rate 0.0320 kg/ha
  herbicidal effect rating, ECHORC: 4.0
[6]; Rate 0.0620 kg/ha
  herbicidal effect rating, ECHORC: 7.0
[6]; Rate 0.1250 kg/ha
  herbicidal effect rating, ECHORC: 9.0
[7]; Rate 0.0620 kg/ha
  herbicidal effect rating, CYPIR: 9.0
[7]; Rate 0.1250 kg/ha
  herbicidal effect rating, CYPIR: 9.0
[8]; Rate 0.0320 kg/ha
  herbicidal effect rating, CYPSE: 1.0
[8]; Rate 0.0620 kg/ha
  herbicidal effect rating, CYPSE: 2.0
[8]; Rate 0.1250 kg/ha
  herbicidal effect rating, CYPSE: 9.0
[9]; Rate 0.0320 kg/ha
  herbicidal effect rating, MOOVA: 6.0
[9]; Rate 0.0620 kg/ha
  herbicidal effect rating, MOOVA: 9.0
[9]; Rate 0.1250 kg/ha
  herbicidal effect rating, MOOVA: 9.0
[10]; Rate 0.0320 kg/ha
  herbicidal effect rating, SAGPY: 0.0
[10]; Rate 0.0620 kg/ha
  herbicidal effect rating, SAGPY: 2.0
[10]; Rate 0.1250 kg/ha
  herbicidal effect rating, SAGPY: 9.0
[11]; Rate 0.0320 kg/ha
  herbicidal effect rating ORYSAT: 7.3
[11]; Rate 0.0620 kg/ha
  herbicidal effect rating ORYSAT: 8.0
[11]; Rate 0.1250 kg/ha
  herbicidal effect rating ORYSAT: 9.0
[11]; Rate 0.2500 kg/ha
  herbicidal effect rating ORYSAT: 9.0
[12]; Rate 0.0620 kg/ha
  herbicidal effect rating, ORYSAT (rice tolerance): 6.0
[12]; Rate 0.1250 kg/ha
  herbicidal effect rating, ORYSAT (rice tolerance): 6.0

Reference: EP0908457B1, “3-(1,2-benzisothiazol- and isoxazol-5-Y1)-2,4(1H,3H)-pyrimidinedione or thione and 3-(1,2-benzisothiazol- and isoxazol-5-y1)-4(3H)-pyrimidinone or thione herbicidal agents” (BASF AKTIENGESELLSCHAFT, priority 1997, dated 1999)
